For experiment [1], the system named is Nakaseomyces glabratus. Briefly: Antifungal activity against Candida glabrata clinical isolate after 24 to 48 hr by CLSI broth microdilution method. It is filed as functional. For orientation: Broth dilution looks for growth in wells or tubes with falling amounts of substance.
In experiment [2] the test system is Nakaseomyces glabratus. Briefly: microbe, parasite or virus in culture. It is filed as functional. The note with it: ATCC 36583.
Description: Antifungal activity against Candida glabrata ATCC 36583 after 24 to 48 hr by CLSI broth microdilution method
Experiment [3] concerns Candida albicans. Nature of the experiment: microbe, parasite or virus in culture. It is filed as functional. The settings on record: NRRL Y-27077.
Description: Antifungal activity against Candida albicans NRRL Y-27077 after 24 to 48 hr by CLSI broth microdilution method
For the next experiment, the system named is Enterococcus faecalis. Nature of the experiment: microbe, parasite or virus in culture. The note with it: ATCC 29212. It is filed as functional.
The next experiment concerns Klebsiella pneumoniae. Briefly: microbe, parasite or virus in culture. It is filed as functional. The note with it: ATCC 700603.
A further experiment has as its system Salmonella typhimurium. Nature of the experiment: microbe, parasite or virus in culture. It is filed as functional, Salmonella enterica subsp. enterica serovar Typhimurium. The settings on record: Salmonella enterica, NRLL B-4420.
For another experiment, the system named is Proteus vulgaris. Briefly: microbe, parasite or virus in culture. It is filed as functional. The settings on record: NRLL B-123.
In a further experiment the test system is Pseudomonas aeruginosa. Nature of the experiment: microbe, parasite or virus in culture. It is filed as functional. The settings on record: ATCC 27853.
The next experiment concerns Escherichia coli. Briefly: microbe, parasite or virus in culture. It is filed as functional. The settings on record: ATCC 35218.
The subject of a further experiment is Candida parapsilosis. Briefly: microbe, parasite or virus in culture. It is filed as functional. The settings on record: Lodderomyces parapsilosis, NRRL Y-12969.
Another experiment concerns [Candida] zeylanoides. Nature of the experiment: microbe, parasite or virus in culture. The settings on record: Dujonia zeylanoides, NRRL Y-1774. It is filed as functional.
The test system of a further experiment is Pichia kudriavzevii. Nature of the experiment: microbe, parasite or virus in culture. The settings on record: NRRL Y-7179. It is filed as functional.
Another experiment has as its system Candida tropicalis. Nature of the experiment: microbe, parasite or virus in culture. It is filed as functional. The note with it: NRRL Y-12968.
The next experiment concerns Cyberlindnera jadinii. Briefly: Antifungal activity against Cyberlindnera jadinii NRRL Y-900 after 24 to 48 hr by CLSI broth microdilution method. It is filed as functional. The settings on record: Williopsis jadinii.
Experiment [4] deals with Candida albicans. Nature of the experiment: Antifungal activity against Candida albicans clinical isolate after 24 to 48 hr by CLSI broth microdilution method. It is filed as functional.
For another experiment, the system named is Staphylococcus aureus. Nature of the experiment: microbe, parasite or virus in culture. The settings on record: ATCC 25923. It is filed as functional.

≈ marks a conversion by molar mass, not a printed value.

Description for Candida parapsilosis: Antifungal activity against Candida parapsilosis NRRL Y-12969 after 24 to 48 hr by CLSI broth microdilution method
Description for Candida tropicalis: Antifungal activity against Candida tropicalis NRRL Y-12968 after 24 to 48 hr by CLSI broth microdilution method
Description for Enterococcus faecalis: Antibacterial activity against Enterococcus faecalis ATCC 29212 after 24 to 48 hr by CLSI broth microdilution method
Description for Escherichia coli: Antibacterial activity against Escherichia coli ATCC 35218 after 24 to 48 hr by CLSI broth microdilution method
Description for Klebsiella pneumoniae: Antibacterial activity against Klebsiella pneumoniae ATCC 700603 after 24 to 48 hr by CLSI broth microdilution method
Description for Pichia kudriavzevii: Antifungal activity against Pichia kudriavzevii NRRL Y-7179 after 24 to 48 hr by CLSI broth microdilution method
Description for Proteus vulgaris: Antibacterial activity against Proteus vulgaris NRLL B-123 after 24 to 48 hr by CLSI broth microdilution method
Description for Pseudomonas aeruginosa: Antibacterial activity against Pseudomonas aeruginosa ATCC 27853 after 24 to 48 hr by CLSI broth microdilution method
Description for Salmonella typhimurium: Antibacterial activity against Salmonella enterica subsp. enterica serovar Typhimurium NRRL B-4420 after 24 to 48 hr by CLSI broth microdilution method
Description for Staphylococcus aureus: Antibacterial activity against Staphylococcus aureus ATCC 25923 after 24 to 48 hr by CLSI broth microdilution method
Description for [Candida] zeylanoides: Antifungal activity against Candida zeylanoides NRRL Y-1774 after 24 to 48 hr by CLSI broth microdilution method

`COc1cc(Cc2cnc(N)nc2N)cc(OC)c1OC.O.O.O=C(O)C(=O)O` [TRIMETHOPRIM OXALIC ACID SALT DIHYDRATE]: the MIC against Nakaseomyces glabratus [1] came out at 25 µg/mL; in the experiment with Nakaseomyces glabratus [2], 50 µg/mL; against Candida albicans [3], 50 µg/mL; against Enterococcus faecalis, 50 µg/mL; in the experiment with Klebsiella pneumoniae, 50 µg/mL; against Salmonella typhimurium, 50 µg/mL. Also, the MIC against Proteus vulgaris, in the experiment with Pseudomonas aeruginosa and with Escherichia coli was 50 µg/mL in each case.
Take `CC(=O)N1CCN(c2ccc(OCC3COC(Cn4ccnc4)(c4ccc(Cl)cc4Cl)O3)cc2)CC1` (configuration not stated) [KETOCONAZOLE]: the MIC came to 1.56 µg/mL (≈ 2.94 µM) with Candida parapsilosis; 25 µg/mL (≈ 47 µM) in experiment [Candida] zeylanoides; 25 µg/mL (≈ 47 µM) in the experiment with Pichia kudriavzevii; 12.5 µg/mL (≈ 23.5 µM) against Candida tropicalis; 12.5 µg/mL (≈ 23.5 µM) against Cyberlindnera jadinii; 3.12 µg/mL (≈ 5.88 µM) in the experiment on Nakaseomyces glabratus [1]. The MIC in the experiment on Nakaseomyces glabratus [2] worked out at 25 µg/mL (≈ 47 µM); against Candida albicans [4], 3.12 µg/mL (≈ 5.88 µM); in the experiment with Candida albicans [3], 12.5 µg/mL (≈ 23.5 µM).
For `COc1cc(Cc2cnc(N)nc2N)cc(OC)c1OC.O=C(O)/C=C\C(=O)O` [TRIMETHOPRIM MALEIC ACID SALT], the MIC with Nakaseomyces glabratus [1], in the experiment on Nakaseomyces glabratus [2], in the experiment on Candida albicans [3], in the experiment on Enterococcus faecalis, with Klebsiella pneumoniae and in the experiment on Salmonella typhimurium was 50 µg/mL throughout. The MIC against Proteus vulgaris, in the experiment on Pseudomonas aeruginosa and in the experiment on Escherichia coli was 50 µg/mL in each case.
Regarding `O=C(N[C@H](CO)[C@H](O)c1ccc([N+](=O)[O-])cc1)C(Cl)Cl` [CHLORAMPHENICOL], the MIC was 12.5 µg/mL (≈ 38.7 µM) in the experiment on Enterococcus faecalis; 50 µg/mL (≈ 155 µM) in the experiment with Staphylococcus aureus; 12.5 µg/mL (≈ 38.7 µM) in the experiment on Klebsiella pneumoniae; 12.5 µg/mL (≈ 38.7 µM) against Salmonella typhimurium; 50 µg/mL (≈ 155 µM) with Proteus vulgaris; 50 µg/mL (≈ 155 µM) with Pseudomonas aeruginosa.
Turning to `COc1cc(Cc2cnc(N)nc2N)cc(OC)c1OC` [TRIMETHOPRIM], the MIC against Nakaseomyces glabratus [1] was found to be 25 µg/mL (≈ 86.1 µM); against Nakaseomyces glabratus [2], 50 µg/mL (≈ 172 µM); with Candida albicans [3], 50 µg/mL (≈ 172 µM); in the experiment with Enterococcus faecalis it was 50 µg/mL (≈ 172 µM); in the experiment on Klebsiella pneumoniae, 50 µg/mL (≈ 172 µM); in the experiment on Salmonella typhimurium, 50 µg/mL (≈ 172 µM). Also, the MIC with Proteus vulgaris, in the experiment on Pseudomonas aeruginosa and with Escherichia coli was 50 µg/mL (≈ 172 µM) each time.

The record behind these values is ChEMBL document CHEMBL3046102, “Antibacterial and antifungal activities of some trimethoprim salts” (2012).
